Experimental data: paper PMC10146281, “Pharmacokinetic and Pharmacodynamic Characteristics of Pelubiprofen Tromethamine vs. Pelubiprofen in Healthy Subjects” (Pharmaceutics, 2023)

Experiments:
[1] = Study II (DW1809-103): pharmacokinetic analysis of plasma pelubiprofen (LC-MS/MS) after single oral dose
Procedure: In this study, the two independent clinical trials (Study I and II) were conducted using an identical randomized, open-label, oral, single-dose, fasted, two-sequence, four-period, crossover design. Due to the known pharmacokinetic characteristics of pelubiprofen with its large intra-subject variability, the replicated design was chosen to calculate the true intra-coefficient of variation in both studies. Study I tested 25 mg of pelubiprofen tromethamine (36.73 mg of pelubiprofen tromethamine salt; 25 mg of pelubiprofen, Daewon Pharmaceutical Co., Ltd., Seoul, Republic of Korea) against 30 mg of pelubiprofen (30.0 mg of pelubiprofen, Daewon Pharmaceutical Co., Ltd., Seoul, Republic of Korea) as the reference. Study II tested 30 mg of pelubiprofen tromethamine (44.07 mg of pelubiprofen tromethamine salt; 30 mg of pelubiprofen, Daewon Pharmaceutical Co., Ltd., Seoul, Republic of Korea) against 30 mg of pelubiprofen (30.0 mg of pelubiprofen, Daewon Pharmaceutical Co., Ltd., Seoul, Republic of Korea) as the reference. The target number of subjects in both Study I and II was set to N = 36 (N = 18 for each sequence group) (Figure 1, Table 1).
The subject screening in both Study I and Study II was performed in the four weeks ([…]) prior to the first administration (Day 1). […] In addition, the screened subjects fasted for at least 10 h, excluding drinking water, from approximately 10 p.m. until administration of the investigational drug. The randomization in both Study I and II led the subjects to receive oral administration of a single test or reference tablet with approximately 150 mL of water at each time point from approximately 8 a.m. at approximately 2 min intervals according to their numbers. The subjects in both Study I and II were prohibited from drinking water for an hour before and after the administration, except during drug administration. The post-administration blood sampling and tests were performed as scheduled. All subjects were provided with identical meals approximately 4 h after blood sampling. The subjects in both Study I and II received the blood sampling and tests for the pharmacokinetic (PK) evaluation approximately 8 h after administration. Then, they were discharged following the completion of the first period of the study.
To analyze the PK characteristics in both Study I and II, approximately 5 mL of blood was sampled before administration (0 h) and at the following time points after administration; 0.083 h (5 min), 0.167 h (10 min), 0.33 h (20 min), and 0.5, 0.75, 1, 1.5, 2, 2.5, 3, 3.5, 4, 6, and 8 h. Therefore, for each subject, the blood sampling was performed 15 times in each period, resulting in a total of 60 times. All four periods proceeded on the same schedule as the first period in both Study I and II. The wash-out period between each consecutive period was set to a minimum of four days. The subjects in both Study I and II, after completing all four periods, chose a day from Day 5 to Day 7 of the final administration in the four period for visiting the center to undergo post study visit.
The validation of the quantitative analysis of plasma pelubiprofen in this study was performed in accordance with the following guidelines: the Validation Protocol for Pelubiprofen Quantification, the domestic Standard Operating Procedure (SOP) for Bioanalyses, the Guideline of Bioanalytical Method Validation (MFDS, December 2013), and Bioanalytical Method Validation Guidance for Industry (USA FDA, 2018). The plasma pelubiprofen was pretreated using protein precipitation in a dark room at room temperature (15–25 °C) and under shielded light for the subsequent liquid chromatograph tandem mass spectrometry (LC-MS/MS) analysis. The tested items in the validation included the intra-batch and inter-batch accuracy, precision, selectivity, linearity, and stability.

[2] = Study I safety and tolerability evaluation (adverse events); type: in vivo, human; settings: for adverse events: Study I, 36 subjects evaluated, all mild
Procedure: In both Study I and II, the safety evaluation was performed on subjects administered with the investigational drug at least once. Any clinically significant findings in the interview, physical examination, vital signs, 12-lead electrocardiogram (ECG), the clinical laboratory test, etc., during the study period were collected as adverse events, which were subsequently evaluated for the incidence of serious adverse events, severity, causal relationship, etc. All relevant data were collected through monitoring by the investigator and voluntary reporting by the subjects. To collect additional data, interview and physical examination were performed where necessary. The investigator carried out the follow-up monitoring of the subjects with adverse events until the symptoms subsided and abnormal test values returned to a healthy baseline or until a satisfactory explanation for the observed change could be provided.

[3] = Study II, 30 mg pelubiprofen tromethamine vs. 30 mg pelubiprofen
[4] = Study II, healthy subjects, single oral 30 mg pelubiprofen tromethamine, fasted, N = 33, mean ± SD

For `CC(C(=O)O)c1ccc(/C=C2\CCCCC2=O)cc1` (centres unmarked) [Pelubiprofen Tromethamine, pelubiprofen tromethamine], the “increase of AUC0-t compared to the reference” value [1, 3] was 24%, the “increase of Cmax compared to the reference” value [1, 3] was 29% and the AUC0-inf [1, 4] was 447.75 ± 123.40 ng·h/mL. It also gave an AUC0-t [1, 4] of 446.44 ± 123.33 ng·h/mL, a CL/F [1, 4] of 72.08 ± 19.97 L/h and a Cmax [1, 4] of 770.01 ± 347.86 ng/mL. For the same molecule, the Vd/F [1, 4] was 94.56 ± 52.40 L, the t1/2 [1, 4] was 57 ± 33.6 min and the Tmax ([1]; Study II, healthy subjects, single oral 30 mg pelubiprofen tromethamine, fasted, N = 33, median (minimum–maximum)) was 0.33 (0.17–2.50) h. For the same molecule, the tolerability and safety ([2]; 25 mg pelubiprofen tromethamine compared to 30 mg pelubiprofen, healthy subjects, single oral dose) was “outstanding tolerability and safety” and the adverse events ([2]; treatment of the test (25 mg pelubiprofen tromethamine)) was “one case of adverse events”.

In the case of `CC(C(=O)O)c1ccc(/C=C2\CCCCC2=O)cc1` (centres unmarked) [Pelubiprofen, 2-[4-(oxocyclohexylidenemethyl)-phenyl] propionic acid], the CL/F ([1]; Study II, healthy subjects, single oral 30 mg pelubiprofen (reference), fasted, N = 33, mean ± SD) is reported as 90.55 ± 32.04 L/h, the “highest within-subject variability for Cmax” value ([1]; Study II, reference 30 mg pelubiprofen, fasting, four-period repeated crossover) is reported as “approximately 58%” and the AUC0-inf ([1]; human, plasma, po, 30 mg) is reported as 366 ± 108 ng·h/mL. For the same molecule, the AUC0-t ([1]; human, plasma, po, 30 mg) was 365 ± 108 ng·h/mL, the Cmax ([1]; human, plasma, po, 30 mg) was 619 ± 336 ng/mL and the Tmax ([1]; human, plasma, po, 30 mg) was 30 min. For the same molecule, the Vd/F ([1]; human, plasma, po, 30 mg) was 119 ± 94.1 L, the half-life ([1]; human, plasma, po, 30 mg) was 55.8 ± 41.4 min and the adverse events ([2]; treatment of reference (30 mg pelubiprofen)) was “three cases of adverse events”.
